# From patent publication US20090042987A1, “TREATMENT OF NEUROPATHIC PAIN” (priority 2007, published 2009)
# System: drug-naïve STZ-diabetic rats
# Test: von Frey paw withdrawal thresholds, drug-naïve STZ-diabetic rats, Example 2
# Type: in vivo, rat
# Conditions: for Mean (±SEM) AUC (area under the normalized PWT versus time curve) / Mean (±SEM) Peak response (PWT) / Mean (±SEM) % MPR at peak: after 7th consecutive twice-daily dose; for Mean (±SEM) % MPR at peak: 100% MPR = full reversal of tactile allodynia
# Method: Experimental Animals Ethical approval for this study was obtained from the Animal Experimentation Ethics Committee of The University of Queensland. Adult male Sprague-Dawley (SD) rats (222±4 g) were used for this study. Rats were housed in a temperature controlled room (21+2.0 C) with a 12/12 hour light/dark cycle. Food and water were available ad libitum. Initiation of drug administration occurred at 8-11 weeks post-STZ administration for rats in Experiment 1 (PCT-001) and at 10-12 weeks post-STZ administration for rats in Experiment 2 (PCT-007).
# Test Article Tranilast was supplied by the Sponsor and stored at −4° C. until use. Gabapentin (100 mg/kg, dissolved in water for injection) was utilized as the positive control for this study.
# Test Article and Vehicle Preparation Test article formulations were prepared freshly on the day of administration by weighing the appropriate amount of bulk powder and suspending it in the required volume of vehicle. Carboxymethyl cellulose ((CMC) 0.5% in water for injection) was utilized as the vehicle for this study.
# Test Article Administration. […] The maximum oral gavage volume administered in this study was […]. 4.4
# STZ-Diabetic Rat Model of Painful Diabetic Neuropathy. Painful diabetic neuropathy is a common long-term complication of diabetes in humans that develops as a result of a sustained biochemical nerve injury. […] Following the induction of diabetes with intravenous STZ at 70-80 mg/kg, it generally takes 6-8 wks for tactile allodynia, the defining symptom of PDN, to fully develop in both rat hindpaws.
# Induction of STZ-Diabetes in Rats. On day 0, rats were anaesthetized with 3% isoflurane:97% O2 and a short polyethylene cannula (0.5 mm ID, 0.8 mm OD) was inserted into the jugular vein to facilitate the intravenous (i.v.) administration of a single dose of streptozotocin (STZ: 70-80 mg/kg). After STZ injection, the cannula was removed and the jugular vein was tied off and the wound was closed. Rats received subcutaneous benzylpenicillin (60 mg) prior to surgery to prevent infection and were kept warm during surgical recovery. Rats were housed singly prior to further experimentation and were monitored daily from the time of STZ administration with regard to general health and well-being.
# Von Frey Assessment of Paw Withdrawal Thresholds. Calibrated von Frey filaments were used to determine the lowest mechanical threshold required to evoke a brisk paw withdrawal reflex in the rat hindpaws. Briefly, rats were transferred individually to wire mesh testing cages (20 cm×20 cm×20 cm) and allowed to acclimatize for approximately 10-20 min prior to von Frey testing. Commencing with the von Frey filament that produced the 6 g force, the filament was applied to the plantar surface of the hindpaw until the filament buckled slightly. Absence of a response after 3 s prompted use of the next filament of increasing weight. A withdrawal response within 3 s prompted use of the next filament of decreasing weight. Filaments used produced buckling weights of 2, 4, 6, 8, 10, 12, 14, 16, 18 and 20 g. […] Tactile allodynia is regarded as being fully developed when von Frey PWTs in the injured hindpaws are <6 g.
# Restoring von-Frey PWTs in the hindpaws from <6 g to pre-STZ surgery levels (12±2 g) is the treatment goal representing full reversal of tactile allodynia. If drug treatment increases PWTs above pre-surgical baseline values (i.e. >12±2 g), such a response is classified as antinociception. Before administration of STZ, baseline von Frey measurements were assessed. Following STZ administration, baseline PWTs were assessed in the hindpaws at week 8-11 to confirm the development of diabetes-induced tactile allodynia.
# Dose-Response Curve for Tranilast in Drug-Naive STZ-Diabetic Rats. […]
smiles,measurement,setting,value
"COc1ccc(/C=C/C(=O)Nc2ccccc2C(=O)O)cc1OC [Tranilast, 2-[[3-(3,4-dimethoxyphenyl)-1-oxo-2-propenyl]amino]benzoic acid]",Mean (±SEM) von Frey Paw Withdrawal threshold assessed prior to dose,"tranilast 100 mg/kg oral twice-daily, prior to dose 1",4.8 ± 0.5 g
same,Mean (±SEM) von Frey Paw Withdrawal threshold assessed prior to dose,"tranilast 100 mg/kg oral twice-daily, prior to dose 3",4.4 ± 0.7 g
same,Mean (±SEM) von Frey Paw Withdrawal threshold assessed prior to dose,"tranilast 100 mg/kg oral twice-daily, prior to dose 5",5.1 ± 0.5 g
same,Mean (±SEM) von Frey Paw Withdrawal threshold assessed prior to dose,"tranilast 100 mg/kg oral twice-daily, prior to dose 7",5.3 ± 0.5 g
same,Mean (±SEM) von Frey Paw Withdrawal threshold following the 7th consecutive dose,"tranilast 100 mg/kg oral twice-daily, time 0 h (pre-dose)",5.3 ± 0.4 g
same,Mean (±SEM) von Frey Paw Withdrawal threshold following the 7th consecutive dose,"tranilast 100 mg/kg oral twice-daily, time 0.15 h",6.0 ± 0 g
same,Mean (±SEM) von Frey Paw Withdrawal threshold following the 7th consecutive dose,"tranilast 100 mg/kg oral twice-daily, time 0.5 h",7.25 ± 0.5 g
same,Mean (±SEM) von Frey Paw Withdrawal threshold following the 7th consecutive dose,"tranilast 100 mg/kg oral twice-daily, time 0.75 h",7.75 ± 0.25 g
same,Mean (±SEM) von Frey Paw Withdrawal threshold following the 7th consecutive dose,"tranilast 100 mg/kg oral twice-daily, time 1 h",8.25 ± 0.5 g
same,Mean (±SEM) von Frey Paw Withdrawal threshold following the 7th consecutive dose,"tranilast 100 mg/kg oral twice-daily, time 1.25 h",8.0 ± 0 g
same,Mean (±SEM) von Frey Paw Withdrawal threshold following the 7th consecutive dose,"tranilast 100 mg/kg oral twice-daily, time 1.5 h",6.75 ± 0.5 g
same,Mean (±SEM) von Frey Paw Withdrawal threshold following the 7th consecutive dose,"tranilast 100 mg/kg oral twice-daily, time 2 h",7.0 ± 0.6 g
same,Mean (±SEM) von Frey Paw Withdrawal threshold following the 7th consecutive dose,"tranilast 100 mg/kg oral twice-daily, time 3 h",6.25 ± 0.3 g
same,Mean (±SEM) AUC (area under the normalized PWT versus time curve),tranilast 100 mg/kg oral,4.98 ± 1.7
same,Mean (±SEM) Peak response (PWT),tranilast 100 mg/kg oral,8.25 ± 0.5
same,Mean (±SEM) % MPR at peak,tranilast 100 mg/kg oral,53.2 ± 3.3%
same,Mean (±SEM) von Frey Paw Withdrawal threshold assessed prior to dose,"tranilast 200 mg/kg oral twice-daily, prior to dose 1",4.9 ± 0.6 g
same,Mean (±SEM) von Frey Paw Withdrawal threshold assessed prior to dose,"tranilast 200 mg/kg oral twice-daily, prior to dose 3",5.2 ± 0.6 g
same,Mean (±SEM) von Frey Paw Withdrawal threshold assessed prior to dose,"tranilast 200 mg/kg oral twice-daily, prior to dose 5",5.2 ± 0.5 g
same,Mean (±SEM) von Frey Paw Withdrawal threshold assessed prior to dose,"tranilast 200 mg/kg oral twice-daily, prior to dose 7",5.2 ± 0.5 g
same,Mean (±SEM) von Frey Paw Withdrawal threshold following the 7th consecutive dose,"tranilast 200 mg/kg oral twice-daily, time 0 h (pre-dose)",5.2 ± 0.4 g
same,Mean (±SEM) von Frey Paw Withdrawal threshold following the 7th consecutive dose,"tranilast 200 mg/kg oral twice-daily, time 0.15 h",5.75 ± 0.7 g
same,Mean (±SEM) von Frey Paw Withdrawal threshold following the 7th consecutive dose,"tranilast 200 mg/kg oral twice-daily, time 0.5 h",7.25 ± 0.5 g
same,Mean (±SEM) von Frey Paw Withdrawal threshold following the 7th consecutive dose,"tranilast 200 mg/kg oral twice-daily, time 0.75 h",8.25 ± 0.25 g
same,Mean (±SEM) von Frey Paw Withdrawal threshold following the 7th consecutive dose,"tranilast 200 mg/kg oral twice-daily, time 1 h",8.75 ± 0.5 g
same,Mean (±SEM) von Frey Paw Withdrawal threshold following the 7th consecutive dose,"tranilast 200 mg/kg oral twice-daily, time 1.25 h",7.25 ± 0.25 g
same,Mean (±SEM) von Frey Paw Withdrawal threshold following the 7th consecutive dose,"tranilast 200 mg/kg oral twice-daily, time 1.5 h",7.0 ± 0.5 g
same,Mean (±SEM) von Frey Paw Withdrawal threshold following the 7th consecutive dose,"tranilast 200 mg/kg oral twice-daily, time 2 h",7.25 ± 0.25 g
same,Mean (±SEM) von Frey Paw Withdrawal threshold following the 7th consecutive dose,"tranilast 200 mg/kg oral twice-daily, time 3 h",6.0 ± 0 g
same,Mean (±SEM) AUC (area under the normalized PWT versus time curve),tranilast 200 mg/kg oral,5.75 ± 0.7
same,Mean (±SEM) Peak response (PWT),tranilast 200 mg/kg oral,8.75 ± 0.5
same,Mean (±SEM) % MPR at peak,tranilast 200 mg/kg oral,62.6 ± 11.7%
same,Mean (±SEM) von Frey Paw Withdrawal threshold assessed prior to dose,"tranilast 300 mg/kg oral twice-daily, prior to dose 1",4.2 ± 0.6 g
same,Mean (±SEM) von Frey Paw Withdrawal threshold assessed prior to dose,"tranilast 300 mg/kg oral twice-daily, prior to dose 3",3.7 ± 0.8 g
same,Mean (±SEM) von Frey Paw Withdrawal threshold assessed prior to dose,"tranilast 300 mg/kg oral twice-daily, prior to dose 5",3.9 ± 0.7 g
same,Mean (±SEM) von Frey Paw Withdrawal threshold assessed prior to dose,"tranilast 300 mg/kg oral twice-daily, prior to dose 7",4.8 ± 0.6 g
same,Mean (±SEM) von Frey Paw Withdrawal threshold following the 7th consecutive dose,"tranilast 300 mg/kg oral twice-daily, time 0 h (pre-dose)",4.8 ± 0.5 g
same,Mean (±SEM) von Frey Paw Withdrawal threshold following the 7th consecutive dose,"tranilast 300 mg/kg oral twice-daily, time 0 h (pre-dose), listed as tranilast",4.8 (±0.5) g
same,Mean (±SEM) von Frey Paw Withdrawal threshold following the 7th consecutive dose,"tranilast 300 mg/kg oral twice-daily, time 0.15 h",5.4 ± 0.7 g
same,Mean (±SEM) von Frey Paw Withdrawal threshold following the 7th consecutive dose,"tranilast 300 mg/kg oral twice-daily, time 0.5 h",8.6 ± 1.5 g
